Biological target: T1, IBD (ItcR itaconate-binding domain) (Yersinia pseudotuberculosis, UniProt A0A0H3B558)
T1 construct: gene YPK_2265
Conditions: protein:itaconate molar ratio 1:100, Bis-Tris pH 6.5, PEG300, 20 °C; SeMet form 7W06

T1 sequence (A0A0H3B558 80-292 limits assumed): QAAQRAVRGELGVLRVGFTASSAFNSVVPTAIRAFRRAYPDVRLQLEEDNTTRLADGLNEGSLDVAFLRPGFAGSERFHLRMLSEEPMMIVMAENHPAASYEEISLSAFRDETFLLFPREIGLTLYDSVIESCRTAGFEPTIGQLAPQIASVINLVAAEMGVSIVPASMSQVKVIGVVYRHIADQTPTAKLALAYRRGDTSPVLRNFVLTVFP

With C=C(CC(=O)O)C(=O)O [itaconate] the structure of complex was “crystal structure of IBD without or with itaconate binding was determined”.

— PMC9636186 (Nature Communications, 2022)
